Assay results published in patent US11485742B2, “2-azaspiro[3.4]octane derivatives as M4 agonists” (NOVARTIS AG, priority 2019, dated 2022).

Columns and labels:
Assay type in all cases: cell-based
[1] = biological target: T1, human cloned CHRM5 receptor (Homo sapiens, UniProt P08912); assay: CHRM5 Ca++ Flux Assay (M5_CHO cells, agonist mode); conditions: for Emax / M5 FDSS PA %: Percent Activity (PA) measured to EC100 of Carbachol; for Emax: read-out: M5 FDSS PA %; for EC50: agonist mode, geometric mean if tested more than once, read-out: M5 FDSS EC50
T1 construct: expressed in transfected cells; host or cells: CHO (M5_CHO)
T1 sequence (P08912 1-532): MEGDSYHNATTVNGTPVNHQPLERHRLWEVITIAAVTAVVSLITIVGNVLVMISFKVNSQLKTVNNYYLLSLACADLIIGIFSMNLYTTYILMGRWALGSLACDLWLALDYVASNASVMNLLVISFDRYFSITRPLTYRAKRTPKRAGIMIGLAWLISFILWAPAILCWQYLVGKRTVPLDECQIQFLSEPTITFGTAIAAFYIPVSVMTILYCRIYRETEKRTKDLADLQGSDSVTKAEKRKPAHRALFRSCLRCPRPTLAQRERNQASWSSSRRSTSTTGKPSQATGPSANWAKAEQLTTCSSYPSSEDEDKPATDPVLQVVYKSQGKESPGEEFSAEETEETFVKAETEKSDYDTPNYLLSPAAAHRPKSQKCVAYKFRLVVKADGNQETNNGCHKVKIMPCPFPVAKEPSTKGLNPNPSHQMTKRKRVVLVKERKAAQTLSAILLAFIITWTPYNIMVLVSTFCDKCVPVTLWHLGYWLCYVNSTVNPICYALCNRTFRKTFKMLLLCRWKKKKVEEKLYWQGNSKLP
Protocol: (§1) The above examples were characterized by measuring the intracellular mobilization of Ca^++ ions caused by signaling events mediated by the receptor. The Intra-cellular Calcium flux levels were captured by the highly sensitive Ca^++ indicator, Calcium Assay Kit (BD Biosciences; Catalog Number 640178. The fluorescent activity from all receptors were monitored by the fluorescent imager, FDSS 7000EX (Hamamatsu) over a span of 3 minutes. The change in Calcium flux was readily captured upon activation with the muscarinic orthosteric agonist, Carbachol.
(§2) CHO-K1 cells stably expressing the human cloned CHRM3 receptor (M3_CHO cells) were grown and maintained in a monolayer culture with F12/HAM (Life Technologies) supplemented with 10% Fetal Bovine Serum, IX Pen-Strep, and 0.4 mg/mL Geneticin in a humidified atmosphere (5% CO2) at 37° C. The cultures were grown to 80-90% confluency in T150 flasks (Corning) and washed with 1×DPBS and lifted with 0.05% Trypsin (Life Technologies). The cells were then spun (1K rpm, 3 minutes) and frozen using Recovery Cell Culture Freezing Media (Gibco Technologies). Cells were stored in liquid nitrogen and thawed a day before the assay. A similar procedure was used for cells stably expressing the human cloned CHRM5 receptor (M5_CHO).
(§3) Prior to the day of the assay, stable M3_CHO or M5_CHO cells were thawed and plated on Greiner 384 well black TC treated plates at 12K cells/well in F12/DMEM supplemented with 10% FBS (Hyclone) and kept overnight in a humidified atmosphere (5% CO2) at 37° C. The next day, cells were loaded with Ca^++ dye (BD Biosciences) using Loading Buffer (HBSS +Ca/+Mg, 20 mM HEPES, 2.5 mM Probenecid) and placed back in cell incubator for a minimum of 1 hour. After incubation, the dye was replaced with Assay Buffer (HBSS −Ca/−Mg, 20 mM HEPES, 2.5 mM Probenecid) and kept at room temperature in the dark before running on cell imager. The FDSS 7000EX (Hamamatsu) was used to acquire Ca^+− traces from cells treated with 11 point dose response of compounds in triplicate in order to generate dose response curves in agonist mode. All compounds were serially diluted in DMSO then prepared in Assay Buffer for Ca^++ flux studies. The dose response curves were generated from the average of triplicate wells obtained from each data point and used a non-linear regression of four parameter dose response algorithm. The Percent Activity (PA) was measured to EC100 of Carbachol.
(§4) If an Example was tested more than once in an assay, then the values below represent the geometric mean of the results from each independent experiment.

[2] = biological target: T2, human cloned CHRM3 receptor (Homo sapiens, UniProt P20309); assay: CHRM3 Ca++ Flux Assay (M3_CHO cells, agonist mode); conditions: for Emax / M3 FDSS PA %: Percent Activity (PA) measured to EC100 of Carbachol; for Emax: read-out: M3 FDSS PA %; for EC50: agonist mode, geometric mean if tested more than once, read-out: M3 FDSS EC50
T2 construct: expressed in transfected cells; host or cells: CHO-K1 (M3_CHO)
Protocol: as §1, §2, §3, §4

[3] = biological target: T3, Cloned human M1 receptor (CHRM1) (Homo sapiens, UniProt P11229); assay: CHRM1 Ca++ Flux Assay (HEK293 M1 cells, agonist mode); conditions: for Emax / M1 FDSS PA %: Percent Activity (PA); for Emax: read-out: M1 FDSS PA %; for EC50: geometric mean if tested more than once, read-out: M1 FDSS EC50
T3 construct: expressed in transfected cells; host or cells: HEK293
T3 sequence (P11229 1-460): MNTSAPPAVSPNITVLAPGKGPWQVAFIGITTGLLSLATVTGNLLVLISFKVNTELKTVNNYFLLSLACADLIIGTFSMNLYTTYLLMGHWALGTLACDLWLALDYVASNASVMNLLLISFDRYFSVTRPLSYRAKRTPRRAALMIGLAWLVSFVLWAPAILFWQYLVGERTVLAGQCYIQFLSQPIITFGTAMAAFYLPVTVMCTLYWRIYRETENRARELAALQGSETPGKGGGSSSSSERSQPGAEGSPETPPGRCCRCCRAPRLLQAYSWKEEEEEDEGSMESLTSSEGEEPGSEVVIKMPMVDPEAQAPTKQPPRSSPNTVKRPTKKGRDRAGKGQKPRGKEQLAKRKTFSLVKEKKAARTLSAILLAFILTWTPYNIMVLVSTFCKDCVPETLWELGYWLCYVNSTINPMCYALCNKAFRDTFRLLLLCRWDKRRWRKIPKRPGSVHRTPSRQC
Protocol: as §1
Cloned human M1 receptor (CHRM1) was stably expressed in HEK293 cells and were grown and maintained in a monolayer culture with DMEM/High Glucose (Life Technologies) supplemented with 10% Fetal Bovine Serum, 1×Pen-Strep, and 0.5 mg/mL Geneticin in a humidified atmosphere (5% CO2) at 37° C. The cultures were grown to 90% confluency in T150 flasks (Corning) and washed with 1×DPBS and lifted with 0.05% Trypsin (Life Technologies). The cells were then spun (1K rpm, 3 minutes) and frozen using Recovery Cell Culture Freezing Media (Gibco Technologies). Cells were stored in liquid nitrogen and thawed a day before the assay.
Prior to the day of the assay, stable HEK293 M1 cells were thawed and plated on 384 well black walled clear bottom TC treated plates (Greiner Cat #781091) at 25K cells/well with DMEM/High Glucose supplemented with 10% FBS (Hyclone) Pen-Strep (Life Technologies) and kept overnight in a humidified atmosphere (5% CO2) at 37° C. The following day, cells were loaded with 20 uL Ca^++ dye (BD Biosciences) using Loading Buffer (HBSS +Ca/+Mg, 20 mM HEPES) and placed back in cell incubator for a minimum of 1 hour. The dye was replaced with 45 μL Assay Buffer (HBSS −Ca/−Mg, 20 mM HEPES) and kept at room temperature prior to running on cell imager. Compounds were prepared in Assay Buffer and 5 uL was added to the cells. The FDSS 7000EX (Hamamatsu) was used to acquire Ca++ traces for 3 minutes from cells treated with 11 point dose in triplicate in order to generate dose response curves in agonist mode. All compounds were serially diluted in DMSO then prepared in Assay Buffer for Ca^++ flux studies. The dose response curves were generated from the average of triplicate wells obtained from each data point and used a non-linear regression of four parameter dose response algorithm. The Percent Activity (PA) was measured to EC100 of Carbachol.
as §4

T2 sequence (P20309 whole entry): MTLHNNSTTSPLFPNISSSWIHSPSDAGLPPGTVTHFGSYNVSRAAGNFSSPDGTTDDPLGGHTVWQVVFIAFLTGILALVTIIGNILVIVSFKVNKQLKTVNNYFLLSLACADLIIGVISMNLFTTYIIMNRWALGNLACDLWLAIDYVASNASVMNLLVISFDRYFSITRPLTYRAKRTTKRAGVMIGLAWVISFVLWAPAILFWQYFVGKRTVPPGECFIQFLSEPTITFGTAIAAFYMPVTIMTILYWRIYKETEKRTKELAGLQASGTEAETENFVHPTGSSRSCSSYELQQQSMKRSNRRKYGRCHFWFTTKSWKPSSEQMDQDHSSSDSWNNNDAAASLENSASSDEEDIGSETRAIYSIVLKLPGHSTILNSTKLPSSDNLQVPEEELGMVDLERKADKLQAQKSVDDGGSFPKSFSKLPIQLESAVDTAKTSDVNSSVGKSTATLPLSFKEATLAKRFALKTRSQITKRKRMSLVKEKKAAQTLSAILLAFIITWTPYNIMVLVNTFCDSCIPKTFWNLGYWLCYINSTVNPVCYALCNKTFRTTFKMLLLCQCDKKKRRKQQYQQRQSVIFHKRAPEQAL

| SMILES | Emax [1] [%] | EC50 [1] [µM] | Emax [2] [%] | EC50 [2] [µM] | Emax [3] [%] | EC50 [3] [µM] | M5 FDSS PA % [1] [%] | M3 FDSS PA % [2] [%] | M1 FDSS PA % [3] [%] |
| --- | --- | --- | --- | --- | --- | --- | --- | --- | --- |
| Fc1ccc(OC[C@H]2COCCO2)c(C2CCN([C@@H]3COC4(C3)CN(c3ncco3)C4)CC2)c1 [Example 4B, (S)-7-(4-(2-(((R)-1,4-dioxan-2-yl)methoxy)-5-fluorophenyl)piperidin-1-yl)-2-(oxazol-2-yl)-5-oxa-2-azaspiro[3.4]octane] | 0 | > 25 | 0 | > 25 | 117 | 0.424 |  |  |  |
| Fc1ccc(OC2CC3(COC3)C2)c(C2CCN([C@@H]3COC4(C3)CN(c3ncco3)C4)CC2)c1 [Example 4G, (S)-7-(4-(2-((2-oxaspiro[3.3]heptan-6-yl)oxy)-5-fluorophenyl)piperidin-1-yl)-2-(oxazol-2-yl)-5-oxa-2-azaspiro[3.4]octane] | 0 | > 25 | 0 | > 25 | 62 | 1.76 |  |  |  |
| Fc1ccc(O[C@H]2CCCOC2)c(C2CCN([C@@H]3COC4(C3)CN(c3nnco3)C4)CC2)c1 (single isomer, unassigned) [Example 2Q, (S)-7-(4-(5-fluoro-2-(((S)-tetrahydro-2H-pyran-3-yl)oxy)phenyl)piperidin-1-yl)-2-(1,3,4-oxadiazol-2-yl)-5-oxa-2-azaspiro[3.4]octane or (S)-7-(4-(5-fluoro-2-(((R)-tetrahydro-2H-pyran-3-yl)oxy)phenyl)piperidin-1-yl)-2-(1,3,4-oxadiazol-2-yl)-5-oxa-2-azaspiro[3.4]octane] |  | > 25 |  | > 25 |  | 2.02 | 0 | 0 | 80 |
| OC[C@H]1C[C@H](Oc2ccc(F)cc2C2CCN([C@@H]3COC4(C3)CN(c3nnco3)C4)CC2)C1 (single isomer, unassigned) [Example 2II, ((1S,3r)-3-(2-(1-((S)-2-(1,3,4-oxadiazol-2-yl)-5-oxa-2-azaspiro[3.4]octan-7-yl)piperidin-4-yl)-4-fluorophenoxy)cyclobutyl)methanol or ((1R,3s)-3-(2-(1-((S)-2-(1,3,4-oxadiazol-2-yl)-5-oxa-2-azaspiro[3.4]octan-7-yl)piperidin-4-yl)-4-fluorophenoxy)cyclobutyl)methanol] |  | > 25 |  | > 25 |  | 4.05 | 0 | 0 | 107 |
| c1ccc(C2CCN([C@@H]3COC4(C3)CN(c3ncco3)C4)CC2)c(-c2cncnc2)c1 [Example 4R, (S)-2-(oxazol-2-yl)-7-(4-(2-(pyrimidin-5-yl)phenyl)piperidin-1-yl)-5-oxa-2-azaspiro[3.4]octane] | 0 | > 25 | 0 | > 25 | 95 | 0.128 |  |  |  |
| Fc1ccc(C2CCOCC2)c(C2CCN([C@@H]3COC4(C3)CN(c3nnco3)C4)CC2)c1 [Example 3D, (S)-7-(4-(5-fluoro-2-(tetrahydro-2H-pyran-4-yl)phenyl)piperidin-1-yl)-2-(1,3,4-oxadiazol-2-yl)-5-oxa-2-azaspiro[3.4]octane] | 0 | > 25 | 0 | > 25 | 75 | 1.41 |  |  |  |
| c1ccc(C2CCN([C@@H]3COC4(C3)CN(c3ncco3)C4)CC2)c(OC2COC2)c1 [Example 4C, (S)-2-(oxazol-2-yl)-7-(4-(2-(oxetan-3-yloxy)phenyl)piperidin-1-yl)-5-oxa-2-azaspiro[3.4]octane] | 0 | > 25 | 0 | > 25 | 79 | 0.382 |  |  |  |

Next, values leading:

| Emax [1] [%] | EC50 [1] [µM] | Emax [2] [%] | EC50 [2] [µM] | Emax [3] [%] | EC50 [3] [µM] | M5 FDSS PA % [1] [%] | M3 FDSS PA % [2] [%] | M1 FDSS PA % [3] [%] | SMILES |
| --- | --- | --- | --- | --- | --- | --- | --- | --- | --- |
| 0 | > 25 | 0 | > 25 | 88 | 0.37 |  |  |  | Fc1ccc(OC[C@@H]2COCCO2)c(C2CCN([C@@H]3COC4(C3)CN(c3nncs3)C4)CC2)c1 [Example 5L, (S)-7-(4-(2-(((S)-1,4-dioxan-2-yl)methoxy)-5-fluorophenyl)piperidin-1-yl)-2-(1,3,4-thiadiazol-2-yl)-5-oxa-2-azaspiro[3.4]octane] |
| 0 | > 25 | 0 | > 25 | 67 | 0.432 |  |  |  | Fc1ccc(O[C@@H]2CCOC2)c(C2CCN([C@@H]3COC4(C3)CN(c3nncs3)C4)CC2)c1 [Example 5H, (S)-7-(4-(5-fluoro-2-(((R)-tetrahydrofuran-3-yl)oxy)phenyl)piperidin-1-yl)-2-(1,3,4-thiadiazol-2-yl)-5-oxa-2-azaspiro[3.4]octane] |
| 0 | > 25 | 0 | > 25 | 91 | 0.413 |  |  |  | CC(C)(O)CCOc1ccc(F)cc1C1CCN([C@@H]2COC3(C2)CN(c2nncs2)C3)CC1 [Example 5P, (S)-4-(2-(1-(2-(1,3,4-thiadiazol-2-yl)-5-oxa-2-azaspiro[3.4]octan-7-yl)piperidin-4-yl)-4-fluorophenoxy)-2-methylbutan-2-ol] |
